Results as given in patent US4788217A, “Pesticidal carbamates” (priority 1984, dated 1988).
Like-named read-outs stand apart in the source and are kept apart here.

Key:
[1] = system: bean beetle (Acanthoscalides obtectus); assay: Pesticidal effect on bean beetle, treated filter paper discs (Example 15, Table I); type: in vivo; settings: 24 hours, killed and paralysed
Experimental: From the compounds of the present invention a series of dilution is prepared in acetone; concentration 1, 0.2, 0.04, 0.008 and 0.0016%, respectively. The solutions thus obtained (0.5 ml) are poured dropwise onto Whatman No. 1. filter paper discs (diameter 90 mm) placed in Petri-dishes. After the solvent has evaporated 1-2 weeks' old bean beetle (Acanthoscalides obtectus) images are placed into the Petri-dishes. 3 replicates (10-15 insects each) are used for each concentration. The pesticidal effect of the test compounds is evaluated after 24 hours, on the basis of the percental ratio of the killed and paralysed individuals.

[2] = system: house fly (Musca domestica); assay: Insecticidal activity on house fly, treated filter paper discs (Example 16, Table II); type: in vivo; parameters: mortality: concentration or dose not given beside the values
Experimental: From the test compounds a series of dilution disclosed in Example 15 is prepared whereupon 3-5 days' old house fly (Musca domestica) images being under slight carbon dioxide narcosis are placed onto the infected treated filter paper discs. Three replicates ([…] each) are used for each concentration. The insecticidal activity of the test compounds and that of the referent compounds is evaluated after 24 hours on the basis of the percental ratio of the killed and paralyzed flies. In the solvent control grop there was no mortality.

[3] = system: small American flour-beetle (Tribolium confusum) larvae; assay: Insecticidal effect on flour-beetle larvae, application onto dorsal cuticulum (Example 17, Table III); settings: topical, 96 h
Experimental: From the 2,3-dihydro-2,2-dimethyl-7-benzofuranyl-N-methyl-N-(N'-morpholinomethyl)-carbamate, dioxacarb and carbofuran series of dilutions are prepared in acetone: the active ingredient content of the solutions amounts to 40.5, 13.5, 4.5, 1.5, 0.5, 0.16 and 0.05 […] per […], respectively. The solutions (0.5 μl) are applied with the aid of a Hamilton syringe onto the dorsal cuticulum of small American flour-beetle (Tribolium confusum) of L6 larva stage. The age of the larvae is determined on the basis of the average larva weight (=1.81±0.37 mg/larva) See Sokoloff 1972.
Two replicates are used for each concentration (10 individuals per replicate). The insecticidal effect of the test compounds is evaluated after 96 hours on the basis of the percental ratio of killed larvae.

in vivo = assay: in vivo; parameters: species or system rats; settings: rat, po
Source text: The acute toxicity data (p.o.) of the test compounds are disclosed in Table IV.

[4] = system: house fly (Musca domestica); assay: whole plant or invertebrate; type: in vivo
Experimental: From the compound according to Example 1 a series of dilution is prepared in acetone; concentration: 0.6, 0.2, 0.067 and 0.022% by weight, respectively. From these solutions 0.5 ml each is poured dropwise onto Whatman No. 1 filter paper discs (diameter 90 mm) placed in Petri-dishes. The discs were previously treated with 0.5 ml of a 0.04% piperonyl butoxide solution. After the evaporation of the acetone 3-5 days' old house fly (Musca domestica) imagos being under slight carbon dioxide narcosis are placed onto the filter paper discs. The test is evaluated as described in Example 16.

rats = settings: p.o.; cited from earlier work
[5] = concentration of active ingredient 0.0016%
[6] = concentration of active ingredient 0.008%
[7] = concentration of active ingredient 0.04%
[8] = concentration of active ingredient 0.2%
[9] = concentration of active ingredient 1%
[10] = female rats, p.o., read-out: acute toxicity (p.o.) on female rats
[11] = male rats, p.o., read-out: acute toxicity (p.o.) on male rats

Structure (SMILES) | mortality % [1, 5] | mortality % [1, 6] | mortality % [1, 7] | mortality % [1, 8] | mortality % [1, 9] | mortality at 0.0016 % ([2]; 24 h) | mortality at 0.04 % ([2]; 24 h) | mortality at 0.08 % ([2]; 24 h) | mortality at 0.2 % ([2]; 24 h) | mortality at 1 % ([2]; 24 h) | mortality at 0.03 µg/larva [3] | mortality at 0.16 µg/larva [3] | mortality at 0.5 µg/larva [3] | mortality at 1.5 µg/larva [3] | mortality at 4.5 µg/larva [3] | mortality at 13 µg/larva [3] | mortality at 40.5 µg/larva [3] | LD50 (in vivo; [10]) | LD50 (in vivo; [11]) | also measured
COc1ccc(CCNCN(C)C(=O)Oc2cccc3c2OC(C)(C)C3)cc1OC [Example 4, 2,3-dihydro-2,2-dimethyl-7-benzofuranyl-N-methyl-N-[3,4-(dimethoxy)-phenylethyl]-amino-methyl-carbamate] | 0% | 37% | 70% | 87% | 100% | 0% | 37% | 20% | 83% | 100% |  |  |  |  |  |  |  |  |  | 
CC(C)NCN(C)C(=O)Oc1cccc2c1OC(C)(C)C2 [Example 2, 2,3-dihydro-2,2-dimethyl-7-benzofuranyl-N-methyl-N-/isopropyl-amino-methyl/-carbamate] | 0% | 40% | 60% | 100% | 100% | 0% | 30% | 10% | 67% | 90% |  |  |  |  |  |  |  |  |  | 
CNC(=O)Oc1ccccc1C1OCCO1 [Dioxacarb, reference compound] | 0% | 30% | 43% | 93% | 100% | 0% | 17% | 10% | 90% | 100% | 25% | 40% | 45% | 50% | 50% | 55% | 80% |  |  | 
CCOC(=O)CCN(CN(C)C(=O)Oc1cccc2c1OC(C)(C)C2)C(C)C [Example 3, 2,3-dihydro-2,2-dimethyl-7-benzofuranyl-N-methyl-N-[(N'-isopropyl)-N'-(β-carbethoxy-ethyl)-amino-methyl]-carbamate] | 0% | 27% | 53% | 80% | 97% | 0% | 40% | 33% | 70% | 97% |  |  |  |  |  |  |  | 31.8 mg/kg | 23.3 mg/kg | 
CNC(=O)Oc1cccc2c1OC(C)(C)C2 [Carbofuran, 2,3-dihydro-2,2-dimethyl-benzofurane-7-yl-methyl-carbamate, reference compound] | 0% | 93% | 100% | 100% | 100% |  |  |  |  |  | 30% | 70% | 100% | 100% | 100% | 100% | 100% |  |  | mortality ([2]; 24 hours, killed and paralyzed): 53%; mortality at 0.0016 % ([2]; concentration of active ingredient 0.0016%, 24 hours, killed and paralyzed, read-out: mortality %): 43%; mortality at 0.04 % ([2]; concentration of active ingredient 0.04%, 24 hours, killed and paralyzed, read-out: mortality %): 67%; mortality at 0.2 % ([2]; concentration of active ingredient 0.2%, 24 hours, killed and paralyzed, read-out: mortality %): 100%; mortality at 1 % ([2]; concentration of active ingredient 1%, 24 hours, killed and paralyzed, read-out: mortality %): 100%; LD50 (in vivo; acute toxicity (p.o.) on male rats): 8 to 14 mg/kg; mortality at 0.022 % ([4]; concentration of active ingredient 0.022%, evaluated as Example 16 (24 hours), read-out: mortality %): 71%; mortality at 0.067 % ([4]; concentration of active ingredient 0.067%, evaluated as Example 16 (24 hours), read-out: mortality %): 100%; mortality at 0.2 % ([4]; concentration of active ingredient 0.2%, evaluated as Example 16 (24 hours), read-out: mortality %): 100%; mortality at 0.6 % ([4]; concentration of active ingredient 0.6%, evaluated as Example 16 (24 hours), read-out: mortality %): 100%; acute toxicity LD50 (rats): 8 to 10 mg/kg
CN(CN1CCOCC1)C(=O)Oc1cccc2c1OC(C)(C)C2 [Example 1, 2,3-dihydro-2,2-dimethyl-7-benzofuranyl-N-methyl-N-(N'-morpholinyl-methyl)-carbamate] | 0% | 50% | 87% | 97% | 100% | 30% | 43% | 40% | 80% | 100% | 75% | 80% | 90% | 90% | 95% | 100% | 100% | 50 mg/kg | 50 mg/kg | mortality at 0.022 % ([4]; 24 h): 32%; mortality at 0.067 % ([4]; 24 h): 78%; mortality at 0.2 % ([4]; 24 h): 100%; mortality at 0.6 % ([4]; 24 h): 100%
